From the NIST ThermoML archive (doi:10.1016/j.jct.2012.05.030)
Numbers after ± are expanded uncertainties.

Legend:
[1] = refractive index (other wavelength) (dimensionless); conditions: 100 kPa, Liquid, Wavelength=632.8 nm, Standard Abbe refractometry
[2] = refractive index (other wavelength) (dimensionless); xn = mol fraction of the nth substance listed; conditions: 100 kPa, Liquid, Wavelength=632.8 nm, Standard Abbe refractometry

N#Cc1ccccc1 [benzonitrile]
[1]
Conditions | refractive index
293.37 K | 1.5252 ± 0.0008
293.99 K | 1.5249 ± 0.0008
294.53 K | 1.5247 ± 0.0008
295.09 K | 1.5243 ± 0.0008
295.66 K | 1.5241 ± 0.0008
296.11 K | 1.5238 ± 0.0008
296.8 K | 1.5236 ± 0.0008
297.16 K | 1.5233 ± 0.0008
297.91 K | 1.523 ± 0.0008
298.2 K | 1.5228 ± 0.0008
298.8 K | 1.5225 ± 0.0008
298.83 K | 1.5226 ± 0.0008
299.26 K | 1.5223 ± 0.0008
300.06 K | 1.5219 ± 0.0008
300.12 K | 1.5219 ± 0.0008
300.31 K | 1.5218 ± 0.0008
301.13 K | 1.5214 ± 0.0008
301.23 K | 1.5214 ± 0.0008
301.35 K | 1.5213 ± 0.0008
302.26 K | 1.5209 ± 0.0008
302.31 K | 1.5209 ± 0.0008
302.42 K | 1.5208 ± 0.0008
302.65 K | 1.5207 ± 0.0008
303.41 K | 1.5203 ± 0.0008
304.49 K | 1.5198 ± 0.0008
305.64 K | 1.5192 ± 0.0008
306.89 K | 1.5186 ± 0.0008
307.55 K | 1.5183 ± 0.0008
307.88 K | 1.5181 ± 0.0008

N#Cc1ccccc1 [benzonitrile] + CCCCCCCCCCCCCCC
[2], x1 = 1
Conditions | refractive index
293.37 K | 1.5252 ± 0.0008
293.99 K | 1.5249 ± 0.0008
294.53 K | 1.5247 ± 0.0008
295.09 K | 1.5243 ± 0.0008
295.66 K | 1.5241 ± 0.0008
296.11 K | 1.5238 ± 0.0008
296.8 K | 1.5236 ± 0.0008
297.16 K | 1.5233 ± 0.0008
297.91 K | 1.523 ± 0.0008
298.2 K | 1.5228 ± 0.0008
298.8 K | 1.5225 ± 0.0008
298.83 K | 1.5226 ± 0.0008
299.26 K | 1.5223 ± 0.0008
300.06 K | 1.5219 ± 0.0008
300.12 K | 1.5219 ± 0.0008
300.31 K | 1.5218 ± 0.0008
301.13 K | 1.5214 ± 0.0008
301.23 K | 1.5214 ± 0.0008
301.35 K | 1.5213 ± 0.0008
302.26 K | 1.5209 ± 0.0008
302.31 K | 1.5209 ± 0.0008
302.42 K | 1.5208 ± 0.0008
302.65 K | 1.5207 ± 0.0008
303.41 K | 1.5203 ± 0.0008
304.49 K | 1.5198 ± 0.0008
305.64 K | 1.5192 ± 0.0008
306.89 K | 1.5186 ± 0.0008
307.88 K | 1.5181 ± 0.0008

N#Cc1ccccc1 [benzonitrile] + CCCCCCCCCCCCCCCCC
[2], x1 = 1
Conditions | refractive index
293.37 K | 1.5252 ± 0.0008
293.99 K | 1.5249 ± 0.0008
294.53 K | 1.5247 ± 0.0008
295.09 K | 1.5243 ± 0.0008
295.66 K | 1.5241 ± 0.0008
296.11 K | 1.5238 ± 0.0008
296.8 K | 1.5236 ± 0.0008
297.16 K | 1.5233 ± 0.0008
297.91 K | 1.523 ± 0.0008
298.2 K | 1.5228 ± 0.0008
298.8 K | 1.5225 ± 0.0008
298.83 K | 1.5226 ± 0.0008
299.26 K | 1.5223 ± 0.0008
300.06 K | 1.5219 ± 0.0008
300.12 K | 1.5219 ± 0.0008
300.31 K | 1.5218 ± 0.0008
301.13 K | 1.5214 ± 0.0008
301.23 K | 1.5214 ± 0.0008
301.35 K | 1.5213 ± 0.0008
302.26 K | 1.5209 ± 0.0008
302.31 K | 1.5209 ± 0.0008
302.42 K | 1.5208 ± 0.0008
303.41 K | 1.5203 ± 0.0008
304.49 K | 1.5198 ± 0.0008
305.64 K | 1.5192 ± 0.0008
306.89 K | 1.5186 ± 0.0008
307.55 K | 1.5183 ± 0.0008
307.88 K | 1.5181 ± 0.0008

CCCCCCCCCCCCCCCCC [heptadecane]
[1]
Conditions | refractive index
298.76 K | 1.4331 ± 0.0008
299.97 K | 1.4326 ± 0.0008
301.18 K | 1.4321 ± 0.0008
302.15 K | 1.4317 ± 0.0008
303.27 K | 1.4313 ± 0.0008
304.24 K | 1.4309 ± 0.0008
305.29 K | 1.4304 ± 0.0008
306.32 K | 1.43 ± 0.0008
307.42 K | 1.4296 ± 0.0008
307.55 K | 1.4296 ± 0.0008

CCCCCCCCCCCCCCCCC [heptadecane] + N#Cc1ccccc1
[2]
Conditions | refractive index
298.76 K, x2 = 0 | 1.4331 ± 0.0008
299.97 K, x2 = 0 | 1.4326 ± 0.0008
301.18 K, x2 = 0 | 1.4321 ± 0.0008
302.15 K, x2 = 0 | 1.4317 ± 0.0008
303.27 K, x2 = 0 | 1.4313 ± 0.0008
304.24 K, x2 = 0 | 1.4309 ± 0.0008
305.29 K, x2 = 0 | 1.4304 ± 0.0008
306.32 K, x2 = 0 | 1.43 ± 0.0008
307.42 K, x2 = 0 | 1.4296 ± 0.0008
307.55 K, x2 = 0 | 1.4296 ± 0.0008
307.55 K, x2 = 0.1039 | 1.4325 ± 0.0008
307.55 K, x2 = 0.2138 | 1.4362 ± 0.0008
307.55 K, x2 = 0.3266 | 1.4411 ± 0.0008
307.55 K, x2 = 0.4187 | 1.4458 ± 0.0008
307.55 K, x2 = 0.5127 | 1.4515 ± 0.0008
307.55 K, x2 = 0.5975 | 1.4578 ± 0.0008
307.55 K, x2 = 0.7127 | 1.4688 ± 0.0008
307.55 K, x2 = 0.8046 | 1.4802 ± 0.0008
307.55 K, x2 = 0.9266 | 1.501 ± 0.0008

CCCCCCCCCCCCCCC [pentadecane]
[1]
Conditions | refractive index
293.37 K | 1.4305 ± 0.0008
294.36 K | 1.4301 ± 0.0008
295.64 K | 1.4296 ± 0.0008
296.92 K | 1.429 ± 0.0008
297.91 K | 1.4286 ± 0.0008
299.12 K | 1.4281 ± 0.0008
300.26 K | 1.4276 ± 0.0008
301.51 K | 1.4271 ± 0.0008
302.46 K | 1.4267 ± 0.0008
302.65 K | 1.4266 ± 0.0008

CCCCCCCCCCCCCCC [pentadecane] + N#Cc1ccccc1
[2]
Conditions | refractive index
293.37 K, x2 = 0 | 1.4305 ± 0.0008
294.36 K, x2 = 0 | 1.4301 ± 0.0008
295.64 K, x2 = 0 | 1.4296 ± 0.0008
296.92 K, x2 = 0 | 1.429 ± 0.0008
297.91 K, x2 = 0 | 1.4286 ± 0.0008
299.12 K, x2 = 0 | 1.4281 ± 0.0008
300.26 K, x2 = 0 | 1.4276 ± 0.0008
301.51 K, x2 = 0 | 1.4271 ± 0.0008
302.46 K, x2 = 0 | 1.4267 ± 0.0008
302.65 K, x2 = 0 | 1.4266 ± 0.0008
302.65 K, x2 = 0.1097 | 1.4304 ± 0.0008
302.65 K, x2 = 0.22 | 1.435 ± 0.0008
302.65 K, x2 = 0.3283 | 1.4404 ± 0.0008
302.65 K, x2 = 0.4141 | 1.4454 ± 0.0008
302.65 K, x2 = 0.4959 | 1.451 ± 0.0008
302.65 K, x2 = 0.5849 | 1.4582 ± 0.0008
302.65 K, x2 = 0.7005 | 1.4698 ± 0.0008
302.65 K, x2 = 0.8052 | 1.4832 ± 0.0008
302.65 K, x2 = 0.8983 | 1.4986 ± 0.0008
